Counter-ions that a name gives are not always drawn.
| Structure (SMILES) | melting point |
| --- | --- |
| O=C(NC1CCCC1)c1ccc(F)c2c1CC(N(CCCc1c[nH]c3ccc(F)cc13)C1CCC1)CO2 (centres unmarked) (as salt: hydrochloride) [Compound 66, 3-{cyclobutyl[3-(5-fluoro-1H-indol-3-yl)propyl]amino}-N-cyclopentyl-8-fluorochromane-5-carboxamide] | 133 °C (dec.) |
| O=C(NC1CCCCC1)c1ccc(F)c2c1CC(N(CCCc1c[nH]c3ccc(F)cc13)C1CCC1)CO2 (centres unmarked) (as salt: hydrochloride) [Compound 67, 3-{cyclobutyl[3-(5-fluoro-1H-indol-3-yl)propyl]amino}-N-cyclohexyl-8-fluorochromane-5-carboxamide] | 134 °C (dec.) |
| O=C(NCC1CC1)c1ccc(F)c2c1CC(N(CCCc1c[nH]c3ccc(F)cc13)C1CCC1)CO2 (centres unmarked) (as salt: hydrochloride) [Compound 68, 3-{cyclobutyl[3-(5-fluoro-1H-indol-3-yl)propyl]amino}-N-(cyclopropylmethyl)-8-fluorochromane-5-carboxamide] | 114 °C (dec.) |
| O=C(NCc1ccccc1)c1ccc(F)c2c1CC(N(CCCc1c[nH]c3ccc(F)cc13)C1CCC1)CO2 (centres unmarked) (as salt: hydrochloride) [Compound 69, N-benzyl-3-{cyclobutyl[3-(5-fluoro-1H-indol-3-yl)propyl]amino}-8-fluorochromane-5-carboxamide] | 124 °C (dec.) |
| O=C(Nc1ccccc1)c1ccc(F)c2c1CC(N(CCCc1c[nH]c3ccc(F)cc13)C1CCC1)CO2 (centres unmarked) (as salt: hydrochloride) [Compound 70, 3-{cyclobutyl[3-(5-fluoro-1H-indol-3-yl)propyl]amino}-8-fluoro-N-phenylchromane-5-carboxamide] | 136 °C (dec.) |
| CCCCCN(CCCc1c[nH]c2ccc(F)cc12)C1COc2c(F)ccc(C(N)=O)c2C1 (centres unmarked) (as salt: hydrochloride) [Compound 71, 8-fluoro-3-[[3-(5-fluoro-1H-indol-3-yl)propyl](pentyl)amino]chromane-5-carboxamide] | 128 °C (dec.) |
| CCCCN(CCCc1c[nH]c2ccc(F)cc12)C1COc2c(F)ccc(C(N)=O)c2C1 (centres unmarked) (as salt: hydrochloride) [Compound 72, 3-{butyl[3-(5-fluoro-1H-indol-3-yl)propyl]amino}-8-fluorochromane-5-carboxamide] | 126 °C (dec.) |
| CN(C)C(=O)c1ccc(F)c2c1CC(N(CCCc1c[nH]c3ccc(F)cc13)C1CCC1)CO2 (centres unmarked) (as salt: hydrochloride) [Compound 73, 3-{cyclobutyl[3-(5-fluoro-1H-indol-3-yl)propyl]amino}-8-fluoro-N,N-dimethylchromane-5-carboxamide] | 126 °C (dec.) |
| NC(=O)c1ccc(F)c2c1CC(N(CCCc1c[nH]c3ccc(F)cc13)Cc1ccccc1)CO2 (centres unmarked) (as salt: hydrochloride) [Compound 74, 3-{benzyl[3-(5-fluoro-1H-indol-3-yl)propyl]amino}-8-fluorochromane-5-carboxamide] | 142 to 150 °C (dec.) |
| NC(=O)c1ccc(F)c2c1CC(NCCc1c[nH]c3ccc(F)cc13)CO2 (centres unmarked) (as salt: hydrochloride) [Compound 75, 8-fluoro-3-{[2-(5-fluoro-1H-indol-3-yl)ethyl]amino}chromane-5-carboxamide] | 134 °C (dec.) |
| CCN(CCc1c[nH]c2ccc(F)cc12)C1COc2c(F)ccc(C(N)=O)c2C1 (centres unmarked) (as salt: hydrochloride) [Compound 76, 3-{ethyl[2-(5-fluoro-1H-indol-3-yl)ethyl]amino}-8-fluorochromane-5-carboxamide] | 127 °C (dec.) |
| CCCN(CCc1c[nH]c2ccc(F)cc12)C1COc2c(F)ccc(C(N)=O)c2C1 (centres unmarked) (as salt: hydrochloride) [Compound 77, 8-fluoro-3-[[2-(5-fluoro-1H-indol-3-yl)ethyl](propyl)amino]chromane-5-carboxamide] | 125 °C (dec.) |
| NC(=O)c1ccc(F)c2c1CC(N(CCc1c[nH]c3ccc(F)cc13)CC1CC1)CO2 (centres unmarked) (as salt: hydrochloride) [Compound 78, 3-{(cyclopropylmethyl)[2-(5-fluoro-1H-indol-3-yl)ethyl]amino}-8-fluorochromane-5-carboxamide] | 132 °C (dec.) |
| NC(=O)c1ccc(F)c2c1CC(NCCCCc1c[nH]c3ccc(F)cc13)CO2 (centres unmarked) (as salt: hydrochloride) [Compound 79, 8-fluoro-3-{[4-(5-fluoro-1H-indol-3-yl)butyl]amino}chromane-5-carboxamide] | 52 °C (dec.) |
| CCN(CCCCc1c[nH]c2ccc(F)cc12)C1COc2c(F)ccc(C(N)=O)c2C1 (centres unmarked) (as salt: hydrochloride) [Compound 80, 3-{ethyl[4-(5-fluoro-1H-indol-3-yl)butyl]amino}-8-fluorochromane-5-carboxamide] | 110 °C (dec.) |
| CCCN(CCCCc1c[nH]c2ccc(F)cc12)C1COc2c(F)ccc(C(N)=O)c2C1 (centres unmarked) (as salt: hydrochloride) [Compound 81, 8-fluoro-3-[[4-(5-fluoro-1H-indol-3-yl)butyl](propyl)amino]chromane-5-carboxamide] | 115 °C (dec.) |

| Structure (SMILES) | melting point |
| --- | --- |
| NC(=O)c1ccc(F)c2c1CC(N(CCCCc1c[nH]c3ccc(F)cc13)C1CCC1)CO2 (centres unmarked) (as salt: hydrochloride) [Compound 83, 3-{cyclobutyl[4-(5-fluoro-1H-indol-3-yl)butyl]amino}-8-fluorochromane-5-carboxamide] | 122 °C (dec.) |
| NC(=O)c1ccc(F)c2c1C[C@@H](N(CCCCc1c[nH]c3ccc(F)cc13)C1CCC1)CO2 (as salt: hydrochloride) [Compound 83a, (3R)-3-{cyclobutyl[4-(5-fluoro-1H-indol-3-yl)butyl]amino}-8-fluorochromane-5-carboxamide] | 128 °C (dec.) |
| NC(=O)c1ccc(F)c2c1C[C@H](N(CCCCc1c[nH]c3ccc(F)cc13)C1CCC1)CO2 (as salt: hydrochloride) [Compound 83b, (3S)-3-{cyclobutyl[4-(5-fluoro-1H-indol-3-yl)butyl]amino}-8-fluorochromane-5-carboxamide] | 128 °C (dec.) |
| CNC(=O)c1ccc(F)c2c1CC(NCCc1c[nH]c3ccc(F)cc13)CO2 (centres unmarked) (as salt: hydrochloride) [Compound 84, 8-fluoro-3-{[2-(5-fluoro-1H-indol-3-yl)ethyl]amino}-N-methylchromane-5-carboxamide] | 148 °C (dec.) |
| CCN(CCc1c[nH]c2ccc(F)cc12)C1COc2c(F)ccc(C(=O)NC)c2C1 (centres unmarked) (as salt: hydrochloride) [Compound 85, 3-{ethyl[2-(5-fluoro-1H-indol-3-yl)ethyl]amino}-8-fluoro-N-methylchromane-5-carboxamide] | 125 °C (dec.) |
| CNC(=O)c1ccc(F)c2c1CC(N(CCc1c[nH]c3ccc(F)cc13)CC1CC1)CO2 (centres unmarked) (as salt: hydrochloride) [Compound 86, 3-{(cyclopropylmethyl)[2-(5-fluoro-1H-indol-3-yl)ethyl]amino}-8-fluoro-N-methylchromane-5-carboxamide] | 138 °C (dec.) |
| CNC(=O)c1ccc(F)c2c1CC(N(CCc1c[nH]c3ccc(F)cc13)C1CCC1)CO2 (centres unmarked) (as salt: hydrochloride) [Compound 87, 3-{cyclobutyl[2-(5-fluoro-1H-indol-3-yl)ethyl]amino}-8-fluoro-N-methylchromane-5-carboxamide] | 131 °C (dec.) |
| CNC(=O)c1ccc(F)c2c1CC(NCCCc1c[nH]c3ccc(F)cc13)CO2 (centres unmarked) (as salt: hydrochloride) [Compound 88, 8-fluoro-3-{[3-(5-fluoro-1H-indol-3-yl)propyl]amino}-N-methylchromane-5-carboxamide] | 148 °C (dec.) |
| CCN(CCCc1c[nH]c2ccc(F)cc12)C1COc2c(F)ccc(C(=O)NC)c2C1 (centres unmarked) (as salt: hydrochloride) [Compound 89, 3-{ethyl[3-(5-fluoro-1H-indol-3-yl)propyl]amino}-8-fluoro-N-methylchromane-5-carboxamide] | 118 °C (dec.) |
| CCCN(CCCc1c[nH]c2ccc(F)cc12)C1COc2c(F)ccc(C(=O)NC)c2C1 (centres unmarked) (as salt: hydrochloride) [Compound 90, 8-fluoro-3-[[3-(5-fluoro-1H-indol-3-yl)propyl](propyl)amino]-N-methylchromane-5-carboxamide] | 123 °C (dec.) |
| CNC(=O)c1ccc(F)c2c1CC(N(CCCc1c[nH]c3ccc(F)cc13)CC1CC1)CO2 (centres unmarked) (as salt: hydrochloride) [Compound 91, 3-{(cyclopropylmethyl)[3-(5-fluoro-1H-indol-3-yl)propyl]amino}-8-fluoro-N-methylchromane-5-carboxamide] | 120 °C (dec.) |
| CNC(=O)c1ccc(F)c2c1CC(NCCCCc1c[nH]c3ccc(F)cc13)CO2 (centres unmarked) (as salt: hydrochloride) [Compound 92, 8-fluoro-3-{[4-(5-fluoro-1H-indol-3-yl)butyl]amino}-N-methylchromane-5-carboxamide] | 130 °C (dec.) |
| CCCN(CCCCc1c[nH]c2ccc(F)cc12)C1COc2c(F)ccc(C(=O)NC)c2C1 (centres unmarked) (as salt: hydrochloride) [Compound 93, 8-fluoro-3-[[4-(5-fluoro-1H-indol-3-yl)butyl](propyl)amino]-N-methylchromane-5-carboxamide] | 110 °C (dec.) |
| CNC(=O)c1ccc(F)c2c1CC(N(CCCCc1c[nH]c3ccc(F)cc13)CC1CC1)CO2 (centres unmarked) (as salt: hydrochloride) [Compound 94, 3-{(cyclopropylmethyl)[4-(5-fluoro-1H-indol-3-yl)butyl]amino}-8-fluoro-N-methylchromane-5-carboxamide] | 112 °C (dec.) |
| CNC(=O)c1ccc(F)c2c1CC(N(CCCCc1c[nH]c3ccc(F)cc13)C1CCC1)CO2 (centres unmarked) (as salt: hydrochloride) [Compound 95, 3-{cyclobutyl[4-(5-fluoro-1H-indol-3-yl)butyl]amino}-8-fluoro-N-methylchromane-5-carboxamide] | 123 °C (dec.) |
| N#Cc1ccc2[nH]cc(CCCN(C3CCC3)[C@@H]3COc4c(F)ccc(C(N)=O)c4C3)c2c1 (as salt: hydrochloride) [Compound 97a, (3S)-3-[[3-(5-cyano-1H-indol-3-yl)propyl](cyclobutyl)amino]-8-fluorochromane-5-carboxamide] | 170 to 177 °C (dec.) |

— patent publication US20050032873A1, “3-Amino chroman and 2-amino tetralin derivatives” (Wyeth, priority 2003, published 2005)
